This test relates to L1210 leukemia ip in BDF1 mice, survival T/C. In words: NCI In Vivo Anticancer Drug Screen. Data for tumor model L1210 Leukemia (intraperitoneal) in B6D2F1 (BDF1) mice. The note with it: endpoint: mean survival time, higher = longer survival. The essentials: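 Ratio derived from survival: compound-dosed mice over vehicle-dosed mice, all bearing a transplantable tumor.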
The mark [1] stands for this setting: dose: 50.0 mg/kg/injection, schedule: Q01DX009 (ip), vehicle: Klucel (hydroxypropylcellulose) (HPC).
Where [2] appears, read: dose: 75.0 mg/kg/injection, schedule: Q01DX001 (ip), vehicle: saline.
The mark [3] stands for this setting: dose: 100.0 mg/kg/injection, schedule: Q01DX009 (ip), vehicle: saline.
The mark [4] stands for this setting: dose: 100.0 mg/kg/injection, schedule: Q04DX003 (ip), vehicle: saline with Tween-80.
Setting [5] is: dose: 200.0 mg/kg/injection, schedule: Q04DX003 (ip), vehicle: saline with Tween-80.
The mark [6] stands for this setting: dose: 100.0 mg/kg/injection, schedule: Q01DX001 (ip), vehicle: saline.
The mark [7] stands for this setting: dose: 200.0 mg/kg/injection, schedule: Q01DX001 (ip), vehicle: saline.
The mark [8] stands for this setting: dose: 400.0 mg/kg/injection, schedule: Q01DX001 (ip), vehicle: saline.

This passage reports T/C results from PubChem BioAssay AID248 (DTP/NCI, 2004).

Each structure is given as a SMILES string. Inconclusive results and toxic doses are left out.

As for `Cc1cnc2c(=O)[nH]c(=O)[nH]c2n1`, the T/C is 102 % of control (dose: 12.5 mg/kg/injection, schedule: Q01DX009 (ip), vehicle: Klucel (hydroxypropylcellulose) (HPC)); 98 % of control (dose: 25.0 mg/kg/injection, schedule: Q01DX009 (ip), vehicle: Klucel (hydroxypropylcellulose) (HPC)); 96 % of control under setting [1]; 96 % of control (dose: 100.0 mg/kg/injection, schedule: Q04DX003 (ip), vehicle: Klucel (hydroxypropylcellulose) (HPC)); 92 % of control (dose: 200.0 mg/kg/injection, schedule: Q04DX003 (ip), vehicle: Klucel (hydroxypropylcellulose) (HPC)); 92 % of control (dose: 400.0 mg/kg/injection, schedule: Q04DX003 (ip), vehicle: Klucel (hydroxypropylcellulose) (HPC)).

Regarding `CCCC(CCC)NCCOC(=O)C(CC)c1ccccc1` (configuration not stated), under setting [2], the T/C is 94 % of control.

`CCCCCCCCC(=O)CCCC`: the T/C under setting [3] was 103 % of control; the T/C (dose: 200.0 mg/kg/injection, schedule: Q01DX009 (ip), vehicle: saline) was 100 % of control; the T/C (dose: 400.0 mg/kg/injection, schedule: Q01DX009 (ip), vehicle: saline) is 100 % of control.

In the case of `COC1=NCCCCC1`, the T/C by setting is: (dose: 50.0 mg/kg/injection, schedule: Q04DX003 (ip), vehicle: saline with Tween-80) 94 % of control; under setting [4], 99 % of control; under setting [5], 91 % of control.

For `CCOCCO`, the T/C is 97 % of control (dose: 5.0 mg/kg/injection, schedule: Q01DX009 (ip), vehicle: saline); 90 % of control (dose: 10.0 mg/kg/injection, schedule: Q01DX009 (ip), vehicle: saline); 98 % of control (dose: 20.0 mg/kg/injection, schedule: Q01DX009 (ip), vehicle: saline).

`OCCc1ccc[nH]1`: the T/C reads like this: under setting [2], 105 % of control; (dose: 150.0 mg/kg/injection, schedule: Q01DX001 (ip), vehicle: saline) 105 % of control; (dose: 300.0 mg/kg/injection, schedule: Q01DX001 (ip), vehicle: saline) 105 % of control.

With `COC(=O)C1C2CCC(C2)C1C(=O)OC` (configuration not stated), the T/C (dose: 100.0 mg/kg/injection, schedule: Q04DX002 (ip), vehicle: Klucel (hydroxypropylcellulose) (HPC)) is 111 % of control; the T/C (dose: 200.0 mg/kg/injection, schedule: Q04DX002 (ip), vehicle: Klucel (hydroxypropylcellulose) (HPC)) was 93 % of control; the T/C (dose: 400.0 mg/kg/injection, schedule: Q04DX002 (ip), vehicle: Klucel (hydroxypropylcellulose) (HPC)) was 107 % of control.

Take `Nc1c2ccccc2c[n+]2ccccc12`: the T/C (dose: 50.0 mg/kg/injection, schedule: Q01DX009 (ip), vehicle: saline) is 150 % of control and the T/C under setting [3] is 163 % of control.

As to `CC1(C)C(=O)C(O)=C[C@@]2(C)C1=CC[C@H]1[C@@H]3CC[C@H](O)[C@@]3(C)CC[C@@H]12`, the T/C (dose: 100.0 mg/kg/injection, schedule: Q01DX001 (sc), vehicle: steriod suspending solution) was 97 % of control; the T/C (dose: 200.0 mg/kg/injection, schedule: Q01DX001 (sc), vehicle: steriod suspending solution) is 104 % of control; the T/C (dose: 400.0 mg/kg/injection, schedule: Q01DX001 (sc), vehicle: steriod suspending solution) was 97 % of control.

As for `[O-][n+]1c2ccccc2nn1-c1ccccc1`, the T/C is, setting by setting: under setting [6], 95 % of control; under setting [7], 96 % of control; under setting [8], 97 % of control.

Consider `Cc1ccnc2ccc3ccccc3c12`, for which the T/C was 101 % of control (dose: 100.0 mg/kg/injection, schedule: Q01DX001 (ip), vehicle: other); 107 % of control (dose: 200.0 mg/kg/injection, schedule: Q01DX001 (ip), vehicle: other); 113 % of control (dose: 400.0 mg/kg/injection, schedule: Q01DX001 (ip), vehicle: other).

With `O=C(NCCCCCCCCNC(=O)Nc1ccc(C2=NCCN2)cc1)Nc1ccc(C2=NCCN2)cc1`, the T/C (dose: 25.0 mg/kg/injection, schedule: Q01DX Z (ip), vehicle: carboxymethylcellulose (CMC)) is 117 % of control; the T/C (dose: 62.0 mg/kg/injection, schedule: Q01DX Z (ip), vehicle: carboxymethylcellulose (CMC)) was 151 % of control; the T/C (dose: 62.0 mg/kg/injection, schedule: Q01DX Z (oral), vehicle: carboxymethylcellulose (CMC)) was 103 % of control; the T/C (dose: 100.0 mg/kg/injection, schedule: Q01DX Z (ip), vehicle: carboxymethylcellulose (CMC)) was 187 % of control; the T/C (dose: 125.0 mg/kg/injection, schedule: Q01DX Z (ip), vehicle: carboxymethylcellulose (CMC)) is 157 % of control; the T/C (dose: 125.0 mg/kg/injection, schedule: Q01DX Z (oral), vehicle: carboxymethylcellulose (CMC)) was 111 % of control. The T/C reads like this: (dose: 150.0 mg/kg/injection, schedule: Q01DX Z (ip), vehicle: carboxymethylcellulose (CMC)) 213 % of control; (dose: 250.0 mg/kg/injection, schedule: Q01DX Z (ip), vehicle: carboxymethylcellulose (CMC)) 114 % of control; (dose: 250.0 mg/kg/injection, schedule: Q01DX Z (oral), vehicle: carboxymethylcellulose (CMC)) 109 % of control; (dose: 500.0 mg/kg/injection, schedule: Q01DX Z (oral), vehicle: carboxymethylcellulose (CMC)) 120 % of control.

Take `O=NSC(c1ccccc1)(c1ccccc1)c1ccccc1`: the T/C under setting [1] was 94 % of control; the T/C (dose: 100.0 mg/kg/injection, schedule: Q01DX009 (ip), vehicle: Klucel (hydroxypropylcellulose) (HPC)) is 89 % of control; the T/C (dose: 200.0 mg/kg/injection, schedule: Q01DX009 (ip), vehicle: Klucel (hydroxypropylcellulose) (HPC)) was 93 % of control.

With `OC1Cn2cc(Br)c[n+]2C1` (configuration not stated), the T/C was 94 % of control (dose: 50.0 mg/kg/injection, schedule: Q01DX001 (ip), vehicle: saline); 116 % of control under setting [6]; 102 % of control under setting [7]; 96 % of control under setting [8].

`CCCCC(C)(CCN)CCCC`: the T/C by setting is: (dose: 4.0 mg/kg/injection, schedule: Q01DX015 (ip), vehicle: carboxymethylcellulose (CMC)) 88 % of control; (dose: 8.0 mg/kg/injection, schedule: Q01DX015 (ip), vehicle: carboxymethylcellulose (CMC)) 96 % of control; (dose: 16.0 mg/kg/injection, schedule: Q01DX015 (ip), vehicle: carboxymethylcellulose (CMC)) 107 % of control; (dose: 32.0 mg/kg/injection, schedule: Q01DX015 (ip), vehicle: carboxymethylcellulose (CMC)) 90 % of control; (dose: 48.0 mg/kg/injection, schedule: Q01DX015 (ip), vehicle: carboxymethylcellulose (CMC)) 100 % of control; (dose: 50.0 mg/kg/injection, schedule: Q01DX001 (ip), vehicle: carboxymethylcellulose (CMC)) 111 % of control. Also, the T/C runs as follows: (dose: 64.0 mg/kg/injection, schedule: Q01DX015 (ip), vehicle: carboxymethylcellulose (CMC)) 93 % of control; (dose: 100.0 mg/kg/injection, schedule: Q01DX001 (ip), vehicle: carboxymethylcellulose (CMC)) 96 % of control; (dose: 100.0 mg/kg/injection, schedule: Q01DX015 (ip), vehicle: carboxymethylcellulose (CMC)) 98 % of control; (dose: 150.0 mg/kg/injection, schedule: Q01DX015 (ip), vehicle: carboxymethylcellulose (CMC)) 100 % of control; (dose: 200.0 mg/kg/injection, schedule: Q01DX001 (ip), vehicle: carboxymethylcellulose (CMC)) 102 % of control; (dose: 400.0 mg/kg/injection, schedule: Q01DX001 (ip), vehicle: carboxymethylcellulose (CMC)) 113 % of control.

For the compound `O=S1Cc2cc3ccccc3cc2C1`, the T/C reads like this: (dose: 100.0 mg/kg/injection, schedule: Q01DX001 (ip), vehicle: saline with Tween-80) 102 % of control; (dose: 200.0 mg/kg/injection, schedule: Q01DX001 (ip), vehicle: saline with Tween-80) 103 % of control; (dose: 400.0 mg/kg/injection, schedule: Q01DX001 (ip), vehicle: saline with Tween-80) 108 % of control.

As to `COC(=O)C1=C(C)NC(=S)NC1c1ccco1` (configuration not stated), the T/C is, setting by setting: under setting [4], 95 % of control; under setting [5], 97 % of control; (dose: 400.0 mg/kg/injection, schedule: Q04DX003 (ip), vehicle: saline with Tween-80) 97 % of control.

For the compound `CC(C)=C1C2CCC1NN2`, the T/C (dose: 50.0 mg/kg/injection, schedule: Q01DX001 (ip), vehicle: Klucel (hydroxypropylcellulose) (HPC)) was 108 % of control.

With `CC(C)(C)P1(=O)OCC(c2ccccc2)CO1` (configuration not stated), the T/C (dose: 100.0 mg/kg/injection, schedule: Q04DX003 (ip), vehicle: other) is 101 % of control and the T/C (dose: 200.0 mg/kg/injection, schedule: Q04DX003 (ip), vehicle: other) was 107 % of control.

As to `CCN(CC)CCCNC1=C(Cl)C(=O)c2ccccc2C1=O`, the T/C (dose: 25.0 mg/kg/injection, schedule: Q01DX009 (ip), vehicle: saline with Tween-80) was 95 % of control.
